The subject of series [1] is Bacillus subtilis. Description: Overnight growth curve (OD 600 nm) cytotoxicity assay, B. subtilis. In kind it is cell-based. The method, then:
A sample of B. subtilis was taken from a plate culture and inoculated into Luria Broth to culture overnight at 37° C. for approximately 16 hours. [table] Samples were incubated in darkness at room temperature for approximately 2 hrs. A black clear bottom Costar™-96 well plate was then filled, with 200 μl of sample in each well Cells were irradiated for 5 minutes at approximately 15 mW/cm^2. The cytotoxicity of the compounds without irradiation was also assessed. The 96 well plate was put into the plate reader and set up to run a growth curve protocol using the following parameters: • Incubation temperature: 37° C. • OD read wavelength 600 nm • 250 cycles, readings every 5 rains • Shaking for 5 s pre-reading This was left to run overnight to obtain kinetic growth curves based on optical density readings.

Series [2] in a line: Peak absorption and fluorescence emission wavelengths in solvents. Conditions: for λem(max)/nm: 100 nM, excitation at peak of absorption; for λabs(max)/nm: 10 μM. In kind it is physicochemical. The method, then:
Peak absorption and fluorescence emission wavelengths of compounds 6, 7, 12, 13, 14, 15, 19, 23, 27, 30 and 34 were measured in a variety of solvents, and the results are shown in Table 1. Absorption measurements were recorded at a concentration of 10 μM, and emission measurements were recorded at a concentration of 100 nM. Emission spectra were recorded with excitation at the peak of absorption (S0→S1).

In series [3] the test system is Bacillus subtilis. As to the kind of experiment: Baclight staining (propidium iodide / Syto 9), widefield imaging, B. subtilis. In kind it is cell-based. The note with it: 1 μM, 405 nm, 5 min. Here is the method:
Samples prepared according to Table 9 were treated with compounds by diluting 10 mM of stock solution in media to make a 100 μM concentration. This solution was then further diluted 1:10 and 1:100 in media to make 10 μM and 1 μM media solutions containing the compound. 50 μl of cell culture were then added to the 100 μM, 10 μM and 1 μM compound-containing media preparations. Following the treatment outlined in Table 9, each of the three bacterial strains were stained using a Baclight™ staining kit containing separate solutions of Syto™ 9 and Propidium Iodide. One extra sample treated with 0.1 μM of each compound was also included in this assay. M. smegmatis, S. epidermis and B. subtilis were stained with propidium iodide to show non-viable cells and with Syto 9 to show all cells. The following staining procedure was used: • 1. 1 ml of each sample was eluted into a well of a 12-well plate; • 2. One half of the 12 well plate was irradiated at approximately 15 mW/cm^2 for 5 mins; • 3. The content of each well was eluted into separate Eppendorfs and centrifuged at 10,000 r.p.m for 3 rains to form a culture pellet; • 4. Media was then removed, and each pellet resuspended in 200 μl of 1× PBS before being centrifuged at 10,000 r.p.m. for 3 mins. • 5. A preparation of Baclight™-staining solution was made using 1 ml 1× PBS, 3 μl propidium iodide and 3 μl Syto™ 9; • 6. […]

Structures are written as SMILES.

With `COC(=O)/C=C/c1ccc(C#Cc2ccc(N(C)CCN)cc2)cc1` [Compound 12, methyl (2E)-3-[4-(2-{4-[(2-aminoethyl)(methyl)amino]phenyl}ethynyl)phenyl]prop-2-enoate], the “growth of B. subtilis, non-irradiated” value in series [1] (1 μM, not irradiated) is “slightly less growth than the untreated samples as well as an increased lag time”. Also, in series [1] (100 μM and 10 μM, with or without photoactivation), the “growth of B. subtilis” value is listed as “no growth is observed regardless of any photoactivation”. Besides, the “cytotoxicity in B. subtilis compared with compound 6” value in series [1] (10 and 1 μM) is recorded as “more cytotoxicity”. In series [2] (DCM), the “λem(max)/nm” value is 551 nm and the “λabs(max)/nm” value was 371 nm. Moreover, in series [2] (Toluene), the “λem(max)/nm” value was 482 nm and the “λabs(max)/nm” value was determined as 380 nm. Moreover, in series [3], the “proportion of non-viable (red) cells following irradiation compared to non-irradiated sample” value was “the proportion of non-viable (red) cells is increased”.
